Experimental data published in patent US9248128B2, “Method for enhancing remyelination using GLI1 inhibitors” (NEW YORK UNIVERSITY, priority 2012, dated 2016).

Tests used:
[1] = tested on: Hh pathway; settings: Peukert and Miller-Moslin, ChemMedChem 2010; cited from earlier work
[2] = tested on: Gli1^het;RCE mice; assay: GANT61 infusion into lateral ventricle during cuprizone demyelination/remyelination; GFP-labeled cells in Corpus Callosum by immunofluorescence; format: in vivo, mouse; settings: n=3
Protocol: 10 week old mice were administered 5 mg Tamoxifen (Sigma) in corn oil on alternate days for total of 4 intraperitoneal (i.p.) injections. Gli1^het;RCE, mice, maintained on the Swiss-Webster background, were fed 0.4% cuprizone (Matsushima and Morell, 2001, Brain Pathol., 11:107-116; Elsworth & Howell, Research in Veterinary Science, 14:385-387, 1973). […] For the LPC model, 2 μl 1% LPC (Calbiochem) were stereotaxically injected into the CC at 1.5 mm anterior, 1.2 mm lateral and 2.2 mm ventral to bregma.
GANT61 (Enzo Life Sciences product #ALX-270-482) (5.6 mg/Kg per day; compound in 50% DMSO and 15% Ethanol in PEG400) or vehicle (50% DMSO+15% Ethanol in PEG400) were delivered via mini-osmotic pump (model 2004, Durect) at a rate of 0.25 μl/h for 4 weeks into the lateral ventricle of Gli^het;RCE mice at 0.5 mm Anterior, 0.75 mm lateral and 2.5 mm ventral to the bregma.
For Black-Gold (Millipore) staining, mice were perfused with 4% PFA and 20 μm coronal sections were stained according to manufacturer's protocol. For all other analysis, mice were perfused with Prefer (Anatech) and 20 μm coronal sections were stained with X-gal (Ahn & Joyner, Nature, 437:894-897, 2005) or processed for immunofluorescence with rabbit or chicken anti-GFP (1:1,000, Invitrogen) and one of the following antibodies: rat anti-PDGFRα (1:200, BD Biosciences); rabbit anti-NG2 (1:200, Millipore) and β4 spectrin (1:4,000 from M. Rasband); mouse anti-CC1 (1:400, Calbiochem), anti-GFAP (1:400, Sigma), anti-MOG (1:50, Sigma) and guinea pig anti-Caspr (1:3,000 from M. Bhat). Secondary antibodies were goat anti-species conjugated to Alexafluor-488, 594 or -680 (1:1,000, Molecular Probes). Nuclei were counterstained with Hoechst 33258 (1:5,000, Invitrogen). Fluorescent images were obtained as Z-stacks of 1 μm optical sections using a confocal laser-scanning microscope (LSM 510, Zeiss) and processed using Adobe Photoshop. At least 10 sections/mouse were analyzed and data from at least 3 mice were combined to determine the average and standard deviation. Student's t-test was performed to calculate P values.
To assess whether a strategy of inhibiting Gli1 could potentially be used therapeutically, GANT61, a small molecule inhibitor of Gli1 (Lauth et al., Proc. Natl. Acad. Sci. U.S.A., 104:8455-8460, 2007), was infused into the lateral ventricle of Gli1^het;RCE mice via a mini-osmotic pump. The infusion was started after 4 weeks of cuprizone diet and was continued for an additional 2 weeks on cuprizone and 2 weeks off cuprizone for a total of 4 weeks. Mice were then sacrificed and analyzed (FIG. 4a).

| SMILES | selectivity for the Hh pathway over TNF/NFkN signaling, glucocorticoid receptor gene transactivation, and the Ras-Raf-Mek-Mapk cascade [1] | numbers of labeled cells in the CC ([2]; 5.6 mg/Kg per day via mini-osmotic pump for 4 weeks (2 weeks on, 2 weeks off cuprizone), mean±SD, vehicle 6.4±5) | proportion of differentiated oligodendrocytes among GFP-labeled cells ([2]; 5.6 mg/Kg per day via mini-osmotic pump for 4 weeks, mean±SD, vehicle 21.4±18.7%) | increase in GFP-labeled cells in the CC ([2]; FIG. 4C, versus control infusion) | percentage of mature oligodendrocytes ([2]; FIG. 4D, versus control infusion, Student's T test) |
| --- | --- | --- | --- | --- | --- |
| c1cc(-c2sc(-c3ccncc3)c(-c3ccncc3)c2-c2ccncc2)ccn1 [GANT58] | display selectivity for the Hh pathway | – | – | – | – |
| CN(C)c1ccccc1CN1CCCN(Cc2ccccc2N(C)C)C1c1ccncc1 [GANT61] | display selectivity for the Hh pathway | 43.8±22.1 per section | 65.4±7.5% | ~7 fold | significant increase |
